# Assay results reported in PubChem BioAssay AID330 (DTP/NCI, 2004).
# “And” between values parts separate entries of the source, which are not always exact repeats. Equal entries are not always repeated. Toxic doses and inconclusive results are not listed.
# Tested on: P388 leukemia ip, CD2F1 mice, survival T/C
# Assay: NCI In Vivo Anticancer Drug Screen. Data for tumor model P388 Leukemia (intraperitoneal) in CD2F1 (CDF1) mice
# Conditions: endpoint: median survival time, higher = longer survival
# Procedure, shortened: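 Mice carrying the transplanted tumor received test compound or vehicle. Survival was recorded in each group, and the value is the treated-group measurement divided by that of the vehicle-treated control group.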
# [1] = dose: 50.0 mg/kg/injection, schedule: Q01DX009 (ip), vehicle: saline with Tween-80
# [2] = dose: 100.0 mg/kg/injection, schedule: Q01DX009 (ip), vehicle: saline with Tween-80
# [3] = dose: 200.0 mg/kg/injection, schedule: Q01DX009 (ip), vehicle: saline with Tween-80
# [4] = dose: 25.0 mg/kg/injection, schedule: Q01DX009 (ip), vehicle: saline with Tween-80
smiles,measurement,setting,value
CC1CCC2C(C)C(=O)OC3OC4(C)CCC1C32OO4 (centres undefined),T/C,"dose: 2.5 mg/kg/injection, schedule: Q01DX005 (ip), vehicle: saline + alcohol",105 % of control
same,T/C,"dose: 5.0 mg/kg/injection, schedule: Q01DX005 (ip), vehicle: saline + alcohol",108 % of control
same,T/C,"dose: 10.0 mg/kg/injection, schedule: Q01DX005 (ip), vehicle: saline + alcohol",108 % of control
same,T/C,"dose: 20.0 mg/kg/injection, schedule: Q01DX005 (ip), vehicle: saline + alcohol",105 % of control
N#C/C(=C\c1ccccc1)c1ccc(Cl)cc1,T/C,[1],105 % of control and 97 % of control
same,T/C,[2],106 % of control and 91 % of control
same,T/C,[3],113 % of control and 96 % of control
same,T/C,"dose: 400.0 mg/kg/injection, schedule: Q01DX009 (ip), vehicle: saline with Tween-80",103 % of control and 97 % of control
O=C1Nc2ccc3cn[nH]c3c2C1=O,T/C,"dose: 50.0 mg/kg/injection, schedule: Q01DX005 (ip), vehicle: saline with Tween-80",98 % of control
same,T/C,"dose: 100.0 mg/kg/injection, schedule: Q01DX005 (ip), vehicle: saline with Tween-80",101 % of control
same,T/C,"dose: 200.0 mg/kg/injection, schedule: Q01DX005 (ip), vehicle: saline with Tween-80",105 % of control
CCN(CC)c1ccc2c(cc1=O)[C@@H](NC(C)=O)CCc1cc(OC)c(OC)c(OC)c1-2,T/C,"dose: 0.39 mg/kg/injection, schedule: Q01DX009 (ip), vehicle: Klucel (hydroxypropylcellulose) (HPC)",103 % of control and 107 % of control and 120 % of control
same,T/C,"dose: 3.13 mg/kg/injection, schedule: Q01DX009 (ip), vehicle: Klucel (hydroxypropylcellulose) (HPC)",181 % of control
O=C1c2ccccc2C(=O)N1c1cccc(CBr)c1,T/C,"dose: 12.5 mg/kg/injection, schedule: Q01DX005 (ip), vehicle: Klucel (hydroxypropylcellulose) (HPC)",102 % of control
same,T/C,"dose: 25.0 mg/kg/injection, schedule: Q01DX005 (ip), vehicle: Klucel (hydroxypropylcellulose) (HPC)",114 % of control
same,T/C,"dose: 50.0 mg/kg/injection, schedule: Q01DX005 (ip), vehicle: Klucel (hydroxypropylcellulose) (HPC)",113 % of control
Cn1c([N+](=O)[O-])cnc1-c1nc(/C=N/N2CCS(=O)(=O)CC2)cs1,T/C,[4],96 % of control
same,T/C,[1],96 % of control
same,T/C,[2],90 % of control
COc1c(Br)cc(/C=C/[N+](=O)[O-])cc1Br,T/C,"dose: 6.25 mg/kg/injection, schedule: Q01DX009 (ip), vehicle: saline with Tween-80",124 % of control
same,T/C,"dose: 12.5 mg/kg/injection, schedule: Q01DX009 (ip), vehicle: saline with Tween-80",112 % of control
Cc1[nH]cnc1CSCCN=C(N)n1[nH]cc(-c2ccc(Cl)cc2)c1=O,T/C,"dose: 100.0 mg/kg/injection, schedule: Q01DX001 (ip), vehicle: Klucel (hydroxypropylcellulose) (HPC)",100 % of control
same,T/C,"dose: 200.0 mg/kg/injection, schedule: Q01DX001 (ip), vehicle: Klucel (hydroxypropylcellulose) (HPC)",97 % of control
same,T/C,"dose: 400.0 mg/kg/injection, schedule: Q01DX001 (ip), vehicle: Klucel (hydroxypropylcellulose) (HPC)",101 % of control
Cc1c2c(c(C)c3c1[nH]c1ccccc13)C(C#N)N(C(=O)c1ccccc1)C=C2 (centres undefined),T/C,"dose: 6.25 mg/kg/injection, schedule: Q04DX003 (ip), vehicle: distilled water + Tween-80",100 % of control
same,T/C,"dose: 12.5 mg/kg/injection, schedule: Q04DX003 (ip), vehicle: distilled water + Tween-80",102 % of control
same,T/C,"dose: 25.0 mg/kg/injection, schedule: Q04DX003 (ip), vehicle: distilled water + Tween-80",90 % of control
same,T/C,"dose: 50.0 mg/kg/injection, schedule: Q04DX003 (ip), vehicle: distilled water + Tween-80",88 % of control
same,T/C,"dose: 100.0 mg/kg/injection, schedule: Q04DX003 (ip), vehicle: distilled water + Tween-80",90 % of control
same,T/C,"dose: 200.0 mg/kg/injection, schedule: Q04DX003 (ip), vehicle: distilled water + Tween-80",94 % of control
OCC(Cl)Cc1cnc[nH]1 (centres undefined),T/C,[1],102 % of control
same,T/C,[2],99 % of control
same,T/C,[3],93 % of control
CN1C(=O)CC(Sc2ccccc2)c2cc(Cl)ccc21 (centres undefined),T/C,[4],99 % of control
same,T/C,[1],100 % of control
same,T/C,[2],97 % of control
O=C(O)c1cc(Nc2ccnc3cc(Cl)ccc23)ccc1O,T/C,"dose: 100.0 mg/kg/injection, schedule: Q04DX002 (ip), vehicle: saline with Tween-80",98 % of control
same,T/C,"dose: 200.0 mg/kg/injection, schedule: Q04DX002 (ip), vehicle: saline with Tween-80",97 % of control
same,T/C,"dose: 400.0 mg/kg/injection, schedule: Q04DX002 (ip), vehicle: saline with Tween-80",98 % of control
